Measurements: ChEMBL document CHEMBL2016464, “Identification of Inhibitors of NOD1-Induced Nuclear Factor-κB Activation” (ACS Med Chem Lett, 2011)
Converted amounts (≈) assume the structure as drawn. The source made the active and inactive calls. No cut-off for these calls is given here.

Key:
HEK-293T [1] = assay: Cytotoxicity against HEK293T cells at 20 uM by alamar blue assay; assay type: cell-based; conditions: human
[2] = target: T1, Nucleotide-binding oligomerization domain-containing protein 1 (Homo sapiens, UniProt Q9Y239)
T1 sequence (Q9Y239 whole entry): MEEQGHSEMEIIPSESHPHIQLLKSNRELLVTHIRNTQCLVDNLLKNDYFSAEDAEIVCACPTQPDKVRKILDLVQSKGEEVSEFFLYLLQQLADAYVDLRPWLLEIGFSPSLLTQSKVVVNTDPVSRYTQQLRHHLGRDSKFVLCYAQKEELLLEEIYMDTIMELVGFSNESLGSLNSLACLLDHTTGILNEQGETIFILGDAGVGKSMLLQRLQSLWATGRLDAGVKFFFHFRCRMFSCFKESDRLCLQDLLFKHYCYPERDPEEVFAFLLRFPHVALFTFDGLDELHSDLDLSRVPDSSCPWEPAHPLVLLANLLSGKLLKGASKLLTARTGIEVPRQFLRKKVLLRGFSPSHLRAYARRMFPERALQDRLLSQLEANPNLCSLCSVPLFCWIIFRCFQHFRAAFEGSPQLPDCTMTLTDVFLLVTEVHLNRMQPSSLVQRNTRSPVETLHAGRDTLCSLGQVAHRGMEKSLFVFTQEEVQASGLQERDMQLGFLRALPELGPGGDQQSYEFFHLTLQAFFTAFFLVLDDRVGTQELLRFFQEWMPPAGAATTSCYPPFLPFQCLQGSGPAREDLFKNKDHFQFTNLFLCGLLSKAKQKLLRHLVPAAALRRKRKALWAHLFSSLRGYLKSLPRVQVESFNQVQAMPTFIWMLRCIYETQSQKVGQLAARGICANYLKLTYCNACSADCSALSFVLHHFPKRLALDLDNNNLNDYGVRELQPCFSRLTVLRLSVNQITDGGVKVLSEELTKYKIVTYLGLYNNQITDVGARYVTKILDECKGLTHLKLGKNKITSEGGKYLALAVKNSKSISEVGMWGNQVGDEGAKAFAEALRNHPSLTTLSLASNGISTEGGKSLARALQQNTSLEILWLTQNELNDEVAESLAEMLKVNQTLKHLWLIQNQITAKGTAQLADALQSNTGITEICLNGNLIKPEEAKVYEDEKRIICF

[3] = target: T2, Nucleotide-binding oligomerization domain-containing protein 2 (Homo sapiens, UniProt Q9HC29)
cells = conditions: Homo sapiens, HEK-293T, 14 h
Description: Inhibition of TNFalpha-induced NFkappaB activation in HEK293T cells after 14 hrs by luciferase reporter gene assay

[4] = Solubility of the compound at pH 7.4; assay type: physicochemical; conditions: buffer
[5] = target: T2, Nucleotide-binding oligomerization domain-containing protein 2; assay: Inhibition of NOD-2 in human MCF7 cells assessed as inhibition of MDP-induced IL8 secretion at 0.25 to 5 uM by ELISA; assay type: cell-based
MCF7 = assay: Inhibition of TNFalpha-induced IL8 secretion in human MCF7 cells at 0.25 to 5 uM by ELISA; assay type: functional, cell-based
HEK-293T [6] = assay: Inhibition of PMA/ionomycin-induced NFkappaB activation at 0.25 to 25 uM in HEK293T cells by luciferase reporter gene assay; assay type: cell-based; conditions: Homo sapiens
HEK-293T [7] = assay: Inhibition of doxorubicin-induced NFkappaB activation at 0.25 to 25 uM in HEK293T cells by luciferase reporter gene assay; assay type: cell-based; conditions: Homo sapiens
[8] = Cytotoxicity against human Fa2N-4 cells after 24 hrs by ATP-lite assay; assay type: cell-based; conditions: read-out: LD50
[9] = Plasma protein binding in human at 1 uM after 4 hrs; assay type: ADME, cell-free; conditions: read-out: PPB (converted)
[10] = Plasma protein binding in human at 10 uM after 4 hrs; assay type: ADME, cell-free; conditions: read-out: PPB (converted)
[11] = Plasma protein binding in mouse at 1 uM after 4 hrs; assay type: ADME, cell-free; conditions: read-out: PPB (converted)
[12] = Plasma protein binding in mouse at 10 uM after 4 hrs; assay type: ADME, cell-free; conditions: read-out: PPB (converted)
[13] = Metabolic stability in human plasma assessed as compound remaining at 1 uM after 180 mins; assay type: ADME, cell-free; conditions: read-out: Stability
[14] = Metabolic stability in mouse plasma assessed as compound remaining at 1 uM after 180 mins; assay type: ADME, cell-free; conditions: read-out: Stability
[15] = Metabolic stability in human liver microsomes assessed as compound remaining at 1 uM preincubated for 10 mins measured after 60 mins; assay type: ADME, Microsome; conditions: read-out: Stability
[16] = Metabolic stability in mouse liver microsomes assessed as compound remaining at 1 uM preincubated for 10 mins measured after 60 mins; assay type: ADME, Microsome; conditions: read-out: Stability
[17] = Plasma concentration in mouse at 15 mg/kg, ip at 20 mins
[18] = Plasma concentration in mouse at 30 mg/kg, ip at 20 mins
[19] = Plasma concentration in mouse at 15 mg/kg, ip at 120 mins
[20] = Plasma concentration in mouse at 30 mg/kg, ip at 120 mins
[21] = target: Histamine H1 receptor (Homo sapiens) (UniProt P35367); assay: Inhibition of H1 histamine receptor at 10 uM
[22] = target: 5-hydroxytryptamine receptor 6 (Homo sapiens) (UniProt P50406); assay: Inhibition of 5HT6 receptor at 10 uM
[23] = target: 5-hydroxytryptamine receptor 2B (Homo sapiens) (UniProt P41595); assay: Inhibition of 5HT2B receptor at 10 uM
[24] = target: Aurora kinase B (Homo sapiens) (UniProt Q96GD4); assay: Inhibition of AURKB at 10 uM relative to control
[25] = target: T3, Aurora kinase C (Homo sapiens) (UniProt Q9UQB9); assay: Inhibition of AURKC at 10 uM relative to control
T3 sequence (whole entry): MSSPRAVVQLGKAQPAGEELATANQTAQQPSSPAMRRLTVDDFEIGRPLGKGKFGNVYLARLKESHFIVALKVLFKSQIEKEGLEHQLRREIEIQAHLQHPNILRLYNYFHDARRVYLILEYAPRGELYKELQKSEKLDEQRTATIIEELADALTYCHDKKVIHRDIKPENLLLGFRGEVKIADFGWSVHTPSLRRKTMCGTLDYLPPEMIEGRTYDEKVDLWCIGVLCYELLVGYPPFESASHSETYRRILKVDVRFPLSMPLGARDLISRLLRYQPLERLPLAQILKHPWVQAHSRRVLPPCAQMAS

[26] = target: Receptor-type tyrosine-protein kinase FLT3 (Homo sapiens) (UniProt P36888); assay: Inhibition of CFLT3 at 10 uM relative to control
[27] = target: Serine/threonine-protein kinase RIO2 (Homo sapiens) (UniProt Q9BVS4); assay: Inhibition of RIOK2 at 10 uM relative to control
[28] = target: T4, Aurora kinase A (Homo sapiens) (UniProt O14965); assay: Inhibition of AURKA at 10 uM relative to control
T4 sequence (whole entry): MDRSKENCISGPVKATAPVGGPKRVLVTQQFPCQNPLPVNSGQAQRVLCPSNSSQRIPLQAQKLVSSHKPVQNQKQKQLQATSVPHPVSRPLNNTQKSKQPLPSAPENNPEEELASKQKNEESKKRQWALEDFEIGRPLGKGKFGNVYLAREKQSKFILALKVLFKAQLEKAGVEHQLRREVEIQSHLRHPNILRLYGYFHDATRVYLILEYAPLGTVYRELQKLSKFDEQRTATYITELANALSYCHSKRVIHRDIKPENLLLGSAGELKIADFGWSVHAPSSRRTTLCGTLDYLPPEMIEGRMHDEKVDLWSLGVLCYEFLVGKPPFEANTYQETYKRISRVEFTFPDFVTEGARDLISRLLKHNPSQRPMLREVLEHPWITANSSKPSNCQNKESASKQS

[29] = Cytotoxicity against human NCI60 cells; assay type: cell-based
[30] = target: T5, Nucleotide-binding oligomerization domain-containing protein 1 (Homo sapiens) (UniProt Q9Y239); conditions: MCF7, 0.25 to 5 uM
T5 sequence (whole entry): T1 sequence (Q9Y239 whole entry)

T2 sequence (Q9HC29 whole entry, the tested form may be a part): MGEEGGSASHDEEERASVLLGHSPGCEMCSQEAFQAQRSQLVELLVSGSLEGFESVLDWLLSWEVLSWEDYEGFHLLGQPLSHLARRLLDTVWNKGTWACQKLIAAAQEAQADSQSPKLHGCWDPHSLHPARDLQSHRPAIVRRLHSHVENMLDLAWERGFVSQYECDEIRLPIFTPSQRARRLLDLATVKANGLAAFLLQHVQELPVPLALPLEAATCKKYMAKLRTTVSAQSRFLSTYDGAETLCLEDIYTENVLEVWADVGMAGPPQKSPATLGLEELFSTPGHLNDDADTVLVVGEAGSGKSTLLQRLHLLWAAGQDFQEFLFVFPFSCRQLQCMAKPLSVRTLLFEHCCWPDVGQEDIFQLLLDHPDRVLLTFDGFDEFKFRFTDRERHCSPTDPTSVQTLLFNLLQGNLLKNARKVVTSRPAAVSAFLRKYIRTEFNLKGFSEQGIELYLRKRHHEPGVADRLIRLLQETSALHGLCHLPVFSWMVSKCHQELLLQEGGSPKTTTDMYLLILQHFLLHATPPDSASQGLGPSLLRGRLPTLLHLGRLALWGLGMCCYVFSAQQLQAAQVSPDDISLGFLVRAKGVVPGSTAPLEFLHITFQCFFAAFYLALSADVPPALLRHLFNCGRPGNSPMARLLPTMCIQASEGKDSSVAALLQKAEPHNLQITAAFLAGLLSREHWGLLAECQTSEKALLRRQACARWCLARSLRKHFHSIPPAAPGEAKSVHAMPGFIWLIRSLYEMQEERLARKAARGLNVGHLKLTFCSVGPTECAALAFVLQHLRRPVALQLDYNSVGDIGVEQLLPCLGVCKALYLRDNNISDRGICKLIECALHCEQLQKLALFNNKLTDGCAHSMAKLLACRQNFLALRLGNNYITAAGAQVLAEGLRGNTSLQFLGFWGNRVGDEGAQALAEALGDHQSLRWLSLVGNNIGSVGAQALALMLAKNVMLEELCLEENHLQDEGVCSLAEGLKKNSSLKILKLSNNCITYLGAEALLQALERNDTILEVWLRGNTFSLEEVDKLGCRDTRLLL
Sequence of 5-hydroxytryptamine receptor 6 (Homo sapiens) (P50406 whole entry): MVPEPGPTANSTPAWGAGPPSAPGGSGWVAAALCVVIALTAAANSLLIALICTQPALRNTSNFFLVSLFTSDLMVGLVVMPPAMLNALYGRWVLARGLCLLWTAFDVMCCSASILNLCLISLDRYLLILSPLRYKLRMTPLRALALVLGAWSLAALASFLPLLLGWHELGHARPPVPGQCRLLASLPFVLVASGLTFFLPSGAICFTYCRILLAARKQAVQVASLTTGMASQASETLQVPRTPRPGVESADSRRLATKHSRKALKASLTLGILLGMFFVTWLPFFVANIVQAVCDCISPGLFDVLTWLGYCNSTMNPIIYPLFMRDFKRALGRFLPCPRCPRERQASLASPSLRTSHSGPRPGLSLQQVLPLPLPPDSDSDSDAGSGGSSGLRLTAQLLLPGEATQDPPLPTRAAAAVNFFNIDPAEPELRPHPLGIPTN
Sequence of 5-hydroxytryptamine receptor 2B (Homo sapiens) (P41595 whole entry): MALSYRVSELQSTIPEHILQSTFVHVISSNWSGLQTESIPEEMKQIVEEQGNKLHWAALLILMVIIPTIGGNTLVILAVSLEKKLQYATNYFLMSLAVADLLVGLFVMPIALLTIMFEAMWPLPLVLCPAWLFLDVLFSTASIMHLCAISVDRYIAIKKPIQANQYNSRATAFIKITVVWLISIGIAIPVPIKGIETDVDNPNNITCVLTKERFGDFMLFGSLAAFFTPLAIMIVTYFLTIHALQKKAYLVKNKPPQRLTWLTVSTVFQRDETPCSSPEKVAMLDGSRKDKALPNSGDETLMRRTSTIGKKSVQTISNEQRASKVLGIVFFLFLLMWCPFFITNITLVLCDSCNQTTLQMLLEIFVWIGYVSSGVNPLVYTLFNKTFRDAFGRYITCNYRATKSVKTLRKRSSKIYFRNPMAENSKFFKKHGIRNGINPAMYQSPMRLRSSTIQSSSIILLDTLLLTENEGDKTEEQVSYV
Sequence of Aurora kinase B (Homo sapiens) (Q96GD4 whole entry): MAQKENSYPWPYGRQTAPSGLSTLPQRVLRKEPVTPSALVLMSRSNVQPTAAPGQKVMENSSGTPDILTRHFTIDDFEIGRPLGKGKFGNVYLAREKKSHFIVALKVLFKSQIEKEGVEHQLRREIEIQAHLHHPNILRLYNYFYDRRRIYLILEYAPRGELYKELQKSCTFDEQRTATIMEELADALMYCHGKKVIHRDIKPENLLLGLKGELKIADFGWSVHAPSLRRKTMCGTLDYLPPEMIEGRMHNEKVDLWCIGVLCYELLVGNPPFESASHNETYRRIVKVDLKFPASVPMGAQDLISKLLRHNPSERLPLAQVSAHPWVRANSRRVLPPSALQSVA
Sequence of Histamine H1 receptor (Homo sapiens) (P35367 whole entry): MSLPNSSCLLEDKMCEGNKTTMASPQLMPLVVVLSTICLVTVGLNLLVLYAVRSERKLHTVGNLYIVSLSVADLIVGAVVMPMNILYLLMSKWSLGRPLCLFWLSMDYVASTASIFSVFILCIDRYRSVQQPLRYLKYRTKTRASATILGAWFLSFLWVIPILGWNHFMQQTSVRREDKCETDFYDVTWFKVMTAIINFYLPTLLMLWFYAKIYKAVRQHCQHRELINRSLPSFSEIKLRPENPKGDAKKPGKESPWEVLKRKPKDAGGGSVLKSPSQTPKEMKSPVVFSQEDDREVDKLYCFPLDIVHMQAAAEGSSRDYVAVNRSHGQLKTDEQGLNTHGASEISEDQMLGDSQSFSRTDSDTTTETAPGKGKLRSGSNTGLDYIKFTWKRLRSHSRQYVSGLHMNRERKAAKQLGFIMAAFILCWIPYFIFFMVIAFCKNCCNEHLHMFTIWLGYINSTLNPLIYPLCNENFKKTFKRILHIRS
Sequence of Receptor-type tyrosine-protein kinase FLT3 (Homo sapiens) (P36888 whole entry): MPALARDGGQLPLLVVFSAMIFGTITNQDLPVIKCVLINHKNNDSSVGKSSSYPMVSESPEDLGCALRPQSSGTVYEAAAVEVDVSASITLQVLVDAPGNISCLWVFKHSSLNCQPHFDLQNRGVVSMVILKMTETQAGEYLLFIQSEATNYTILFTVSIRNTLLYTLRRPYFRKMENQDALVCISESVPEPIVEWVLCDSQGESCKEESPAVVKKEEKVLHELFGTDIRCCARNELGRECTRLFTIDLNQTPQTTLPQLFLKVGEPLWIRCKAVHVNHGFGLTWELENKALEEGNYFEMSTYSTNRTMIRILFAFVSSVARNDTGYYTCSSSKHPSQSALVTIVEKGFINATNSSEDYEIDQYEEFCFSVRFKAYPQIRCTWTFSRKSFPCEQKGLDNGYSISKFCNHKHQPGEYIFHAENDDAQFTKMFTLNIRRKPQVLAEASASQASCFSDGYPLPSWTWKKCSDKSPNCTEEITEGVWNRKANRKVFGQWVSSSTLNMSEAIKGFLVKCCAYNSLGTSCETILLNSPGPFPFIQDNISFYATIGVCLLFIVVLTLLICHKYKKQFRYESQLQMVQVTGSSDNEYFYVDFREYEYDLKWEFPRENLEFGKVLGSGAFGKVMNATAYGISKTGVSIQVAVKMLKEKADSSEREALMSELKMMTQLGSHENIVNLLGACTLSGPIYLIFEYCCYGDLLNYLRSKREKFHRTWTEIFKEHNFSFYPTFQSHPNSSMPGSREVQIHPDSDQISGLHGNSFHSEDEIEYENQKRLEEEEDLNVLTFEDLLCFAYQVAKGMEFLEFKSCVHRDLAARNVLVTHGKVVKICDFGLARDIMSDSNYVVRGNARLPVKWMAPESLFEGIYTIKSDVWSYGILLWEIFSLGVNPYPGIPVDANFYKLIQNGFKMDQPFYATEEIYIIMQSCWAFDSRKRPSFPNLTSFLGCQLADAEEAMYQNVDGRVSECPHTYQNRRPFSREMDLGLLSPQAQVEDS
Sequence of Serine/threonine-protein kinase RIO2 (Homo sapiens) (Q9BVS4 whole entry, looked up): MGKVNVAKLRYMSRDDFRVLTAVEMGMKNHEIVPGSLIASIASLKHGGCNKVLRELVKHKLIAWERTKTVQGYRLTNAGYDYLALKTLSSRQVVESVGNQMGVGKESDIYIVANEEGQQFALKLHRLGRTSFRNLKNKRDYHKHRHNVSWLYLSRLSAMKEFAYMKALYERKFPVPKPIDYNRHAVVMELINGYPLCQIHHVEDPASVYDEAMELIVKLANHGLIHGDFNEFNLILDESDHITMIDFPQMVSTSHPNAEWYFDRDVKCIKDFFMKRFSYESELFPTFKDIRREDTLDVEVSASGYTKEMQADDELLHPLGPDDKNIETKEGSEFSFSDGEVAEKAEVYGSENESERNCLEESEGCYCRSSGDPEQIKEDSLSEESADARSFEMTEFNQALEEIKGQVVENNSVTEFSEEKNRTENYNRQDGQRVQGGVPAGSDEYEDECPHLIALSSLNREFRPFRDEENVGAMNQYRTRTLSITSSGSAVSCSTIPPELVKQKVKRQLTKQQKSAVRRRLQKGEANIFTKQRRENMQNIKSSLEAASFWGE

O=C(Nc1ccc(S(=O)(=O)O)cc1)c1ccc(CN2CCc3ccccc3C2)cc1
Activity (HEK-293T [1]): 0%
IC50 [2]: > 20 µM
IC50 [3]: > 20 µM
IC50 (cells): > 20 µM

O=C(Nc1ccc(Cl)cc1)c1ccc(CCN2CCc3ccccc3C2)cc1
Activity (HEK-293T [1]): 0%
IC50 [2]: > 20 µM
IC50 [3]: > 20 µM
IC50 (cells): > 20 µM

CC(=O)c1ccc(N2CCN(S(=O)(=O)c3ccc4c(c3)CC(C)N4C(=O)C3CC3)CC2)cc1 (racemic)
Activity (HEK-293T [1]): 0%
solubility [4]: 0.1 µg/mL (≈ 0.214 µM)
IC50 [2]: 10.3 µM
IC50 [3]: 7.9 µM
IC50 (cells): > 20 µM

Nc1nc2ccccc2n1C(=O)Cc1ccccc1
Activity (HEK-293T [1]): 0%
IC50 [2]: > 20 µM
IC50 [3]: > 20 µM
IC50 (cells): > 20 µM

Cc1ccc(N2CCN(S(=O)(=O)c3ccc4c(c3)CC(C)N4C(=O)C3CC3)CC2)cc1 (racemic)
Activity (HEK-293T [1]): 0%
solubility [4]: 0.1 µg/mL (≈ 0.227 µM)
IC50 [2]: > 20 µM
IC50 [3]: > 20 µM
IC50 (cells): > 20 µM

CSc1ccc(NC(=O)c2ccc(CN3CCc4ccccc43)cc2)cc1
Activity (HEK-293T [1]): 0%
IC50 [2]: > 20 µM
IC50 [3]: > 20 µM
IC50 (cells): > 20 µM

CCOc1ccc(C(=O)Nc2ccc(CN3CCc4ccccc4C3)cc2)cc1
Activity (HEK-293T [1]): 0%
IC50 [2]: > 20 µM
IC50 [3]: > 20 µM
IC50 (cells): > 20 µM

COc1ccc(NC(=O)c2ccc(CN3CCCCC3)cc2)cc1
Activity (HEK-293T [1]): 0%
IC50 [2]: > 20 µM
IC50 [3]: > 20 µM
IC50 (cells): > 20 µM

COc1ccc(C(=O)Cn2c(N)nc3ccccc32)cc1
Activity (HEK-293T [1]): 0%
IC50 [2]: > 20 µM
IC50 [3]: > 20 µM
IC50 (cells): > 20 µM

Cc1ccc(S(=O)(=O)n2c(N)nc3ccccc32)cc1
Activity (HEK-293T [1]): 0%
inhibition [5]: inactive
inhibition (MCF7): inactive
inhibition (HEK-293T [6]): inactive
inhibition (HEK-293T [7]): inactive
CC50 at 24 h [8]: > 50 µM
fraction unbound at 4 h, 1 µM [9]: 0.025
fraction unbound at 4 h, 10 µM [10]: 0.023
fraction unbound at 4 h, 1 µM [11]: 0.05
fraction unbound at 4 h, 10 µM [12]: 0.045
remaining at 3 h, 1 µM [13]: 100%
remaining at 3 h, 1 µM [14]: 100%
remaining at 1 h, 1 µM [15]: 41.8%
remaining at 1 h, 1 µM [16]: 0.8%
concentration at 20 min [17]: 1.2 µg/mL
concentration at 20 min [18]: 5.5 µg/mL
concentration at 2 h [19]: < 0.5 µg/mL
concentration at 2 h [20]: < 0.5 µg/mL
inhibition [21]: 89%
inhibition [22]: 92%
inhibition [23]: 69%
inhibition [24]: 21%
inhibition [25]: 23%
inhibition [26]: 27%
inhibition [27]: 6%
inhibition [28]: inactive
Activity [29]: Non-toxic
inhibition [30]: Active
IC50 (cells): > 20 µM

CC1Cc2cc(S(=O)(=O)N3CCN(c4ccccc4)CC3)ccc2N1C(=O)C1CC1 (racemic)
Activity (HEK-293T [1]): 0%
solubility [4]: 0.1 µg/mL (≈ 0.235 µM)
IC50 [2]: > 20 µM
IC50 [3]: 17.4 µM
IC50 (cells): 15.3 µM

O=C(Nc1ccc(CN2CCc3ccccc3C2)cc1)c1ccc(Cl)cc1
Activity (HEK-293T [1]): 0%
IC50 [2]: > 20 µM
IC50 [3]: > 20 µM
IC50 (cells): > 20 µM

CCC(=O)N1CCc2cc(S(=O)(=O)N3CCN(c4ccc(C(C)=O)cc4)CC3)ccc21
Activity (HEK-293T [1]): 0%
solubility [4]: 0.1 µg/mL (≈ 0.226 µM)
IC50 [2]: > 20 µM
IC50 [3]: > 20 µM
IC50 (cells): > 20 µM

COc1ccc(NC(=O)c2ccc(CN3CCc4ccccc43)cc2)cc1
Activity (HEK-293T [1]): 0%
IC50 [2]: > 20 µM
IC50 [3]: > 20 µM
IC50 (cells): > 20 µM

CCOc1ccc(NC(=O)c2ccc(CCN3CCc4ccccc4C3)cc2)cc1
Activity (HEK-293T [1]): 0%
IC50 [2]: > 20 µM
IC50 [3]: > 20 µM
IC50 (cells): > 20 µM

O=C(Nc1ccc(OC(F)(F)F)cc1)c1ccc(CN2CCc3ccccc3C2)cc1
Activity (HEK-293T [1]): 0%
IC50 [2]: 0.08 µM
IC50 [3]: 0.03 µM
IC50 (cells): 0.03 µM

CCOc1ccc(NC(=O)c2ccc(CN3CCc4ccccc43)cc2)cc1
Activity (HEK-293T [1]): 0%
IC50 [2]: > 20 µM
IC50 [3]: > 20 µM
IC50 (cells): > 20 µM

O=C(C1CC1)N1CCc2cc(S(=O)(=O)N3CCN(c4ccc(Cl)cc4)CC3)ccc21
Activity (HEK-293T [1]): 0%
solubility [4]: 0.1 µg/mL (≈ 0.224 µM)
IC50 [2]: > 20 µM
IC50 [3]: > 20 µM
IC50 (cells): > 20 µM

CCC(=O)N1CCc2cc(S(=O)(=O)N3CCN(c4ccc(Cl)cc4)CC3)ccc21
Activity (HEK-293T [1]): 0%
solubility [4]: 0.1 µg/mL (≈ 0.23 µM)
IC50 [2]: > 20 µM
IC50 [3]: > 20 µM
IC50 (cells): > 20 µM
